Publication PMC2276626, “Structure-Based Inhibitors Exhibit Differential Activities against Helicobacter pylori and Escherichia coli Undecaprenyl Pyrophosphate Synthases” (Journal of Biomedicine and Biotechnology, 2008)

Legend:
[1] = target: Undecaprenyl pyrophosphate synthase (UPPS) (Helicobacter pylori, UniProt P55984, C234A)
[2] = target: T1, Undecaprenyl pyrophosphate synthase (UPPS) (Escherichia coli, UniProt P60472); assay: enzyme activity dose-response with […] UPPS; type: biochemical
T1 construct: gene ispU

[3] = target: T2, Undecaprenyl pyrophosphate synthase (UPPS) (Helicobacter pylori, UniProt P55984); assay: enzyme activity dose-response with […] UPPS; type: biochemical
T2 sequence (P55984 1-234): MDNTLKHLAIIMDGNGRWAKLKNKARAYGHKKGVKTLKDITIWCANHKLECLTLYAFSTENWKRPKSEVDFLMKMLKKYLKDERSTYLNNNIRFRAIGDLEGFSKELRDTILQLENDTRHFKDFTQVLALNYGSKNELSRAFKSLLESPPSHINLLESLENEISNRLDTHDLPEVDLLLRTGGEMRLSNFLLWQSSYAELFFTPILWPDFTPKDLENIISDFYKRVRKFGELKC

[4] = system: C=C(C)CCO[P@@](=O)(O)OP(=O)(O)O; assay: steady-state enzyme kinetics (Km); type: biochemical, Helicobacter pylori; conditions: Mg2+
[5] = system: CC(C)=CCC/C(C)=C/CC/C(C)=C/CO[P@@](=O)(O)OP(=O)(O)O; assay: steady-state enzyme kinetics (Km); type: biochemical, Helicobacter pylori; conditions: Mg2+
[6] = substrate: C=C(C)CCO[P@@](=O)(O)OP(=O)(O)O; assay: steady-state enzyme kinetics (Km); type: biochemical, Helicobacter pylori; conditions: Mg2+; remark: listed apart in the source
[7] = substrate: CC(C)=CCC/C(C)=C/CC/C(C)=C/CO[P@@](=O)(O)OP(=O)(O)O; assay: steady-state enzyme kinetics (Km); type: biochemical, Helicobacter pylori; conditions: Mg2+; remark: listed apart in the source

T1 sequence (P60472 whole entry): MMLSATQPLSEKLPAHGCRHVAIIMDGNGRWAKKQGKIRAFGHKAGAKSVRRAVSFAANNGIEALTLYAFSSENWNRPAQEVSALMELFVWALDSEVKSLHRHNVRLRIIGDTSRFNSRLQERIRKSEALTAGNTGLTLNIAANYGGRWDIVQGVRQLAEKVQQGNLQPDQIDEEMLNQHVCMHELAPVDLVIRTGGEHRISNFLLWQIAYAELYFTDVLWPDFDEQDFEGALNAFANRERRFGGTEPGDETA

In the case of `O=P(O)(O)OP(=O)(O)O` [pyrophosphate], the “X-ray crystal structure at 2.5 Å (crystals soaked with FsPP, IPP and MgCl2); only” value [1] is reported as “only the pyrophosphate of FsPP was found in the complex structure”.

Work on `O=S(=O)(CS(=O)(=O)Nc1nc2ccc(Cl)cc2s1)Nc1nc2ccc(Cl)cc2s1` [BTB06061] yielded an IC50 [2] of 71 µM and an IC50 [3] of 350 µM.

For “Undecaprenyl pyrophosphate synthase (UPPS) (Helicobacter pylori 26695; C234A)”, the Km [4] was 9.6 ± 0.2 µM and the Km [5] was 0.15 ± 0.04 µM.

Molecule `NS(=O)(=O)c1cccc(-c2ccc(C3Nc4ccccc4-c4nc5ccccc5n43)o2)c1` (centres unmarked) [HTS04781] has an IC50 [3] of 362 µM.

B1: Undecaprenyl pyrophosphate synthase (UPPS) (Helicobacter pylori 26695) (protein)
chain: T2 sequence (P55984 1-234)
In the case of B1, the Km [6] is reported as 9.2 ± 0.1 µM and the Km [7] is reported as 0.11 ± 0.02 µM.
